Source: US10179771B2 (GALAPAGOS NV, priority 2014, dated 2019)

Target: T1, Recombinant human JAK1 catalytic domain (Homo sapiens, UniProt P23458)
T1 construct: Recombinant human JAK1 (catalytic domain, amino acids 866-1154; catalog number PV4774); purchased Invitrogen PV4774
Assay: JAK1 inhibition assay (polyGT substrate / Ulight-JAK1 peptide assay)
Type: biochemical
Conditions: Comparative Compounds (Table VI)
Protocol: Recombinant human JAK1 catalytic domain (amino acids 850-1154; catalog number 08-144) was purchased from Carna Biosciences. 10 ng of JAK1 is incubated with 12.5 μg polyGT substrate (Sigma catalog number P0275) in kinase reaction buffer (15 mM Tris-HCl pH 7.5, 1 mM DTT, 0.01% Tween-20, 10 mM MgCl2, 2 μM non-radioactive ATP, 0.25 ρCi ^33P-gamma-ATP (GE Healthcare, catalog number AH9968) final concentrations) with or without 5 μL containing test compound or vehicle (DMSO, 1% final concentration), in a total volume of 25 μL, in a polypropylene 96-well plate (Greiner, V-bottom). After 45 min at 30° C., reactions are stopped by adding of 25 μL/well of 150 mM phosphoric acid. All of the terminated kinase reaction is transferred to prewashed (75 mM phosphoric acid) 96 well filter plates (Perkin Elmer catalog number 6005177) using a cell harvester (Perkin Elmer). Plates are washed 6 times with 300 μL per well of a 75 mM phosphoric acid solution and the bottom of the plates is sealed. 40 μL/well of Microscint-20 is added, the top of the plates is sealed and readout is performed using the Topcount (Perkin Elmer). Kinase activity is calculated by subtracting counts per min (cpm) obtained in the presence of a positive control inhibitor (10 μM staurosporine) from cpm obtained in the presence of vehicle. The ability of a test compound to inhibit this activity is determined as:
[formula] • RFU test compound=RFU determined for sample with test compound present • RFU control=RFU determined for sample with positive control inhibitor • RFU vehicle=RFU determined in the presence of vehicle
Dose dilution series are prepared for the compounds enabling the testing of dose-response effects in the JAK1 assay and the calculation of the IC50 for each compound. Each compound is routinely tested at concentration of 20 μM followed by a 1/3 serial dilution, 8 points (20 μM-6.67 μM-2.22 μM-740 nM-247 nM-82 nM-27 nM-9 nM) in a final concentration of 1% DMSO. When potency of compound series increased, more dilutions are prepared and/or the top concentration was lowered (e.g. 5 μM, 1 μM).
Recombinant human JAK1 (catalytic domain, amino acids 866-1154; catalog number PV4774) was purchased from Invitrogen. 1 ng of JAK1 was incubated with 20 nM Ulight-JAK1 (tyr1023) peptide (Perkin Elmer catalog number TRF0121) in kinase reaction buffer (25 mM MOPS pH6.8, 0.01% Brij-35, 5 mM MgCl2, 2 mM DTT, 7 μM ATP) with or without 4 μL containing test compound or vehicle (DMSO, 1% final concentration), in a total volume of 20 μL, in a white 384 Opti plate (Perkin Elmer, catalog number 6007290). After 60 min at room temperature, reactions were stopped by adding 20 μL/well of detection mixture (1× detection buffer (Perkin Elmer, catalog number CR97-100C), 0.5 nM Europium-anti-phosphotyrosine (PT66) (Perkin Elmer, catalog number AD0068), 10 mM EDTA). Readout is performed using the Envision with excitation at 320 nm and measuring emission at 615 nm (Perkin Elmer). Kinase activity was calculated by subtracting relative fluorescence units (RFU) obtained in the presence of a positive control inhibitor (10 μM staurosporine) from RFU obtained in the presence of vehicle. The ability of a test compound to inhibit this activity was determined as: Percentage inhibition=((RFU determined for sample with test compound present−RFU determined for sample with positive control inhibitor) divided by (RFU determined in the presence of vehicle−RFU determined for sample with positive control inhibitor))*100.
Dose dilution series were prepared for the compounds enabling the testing of dose-response effects in the JAK1 assay and the calculation of the IC50 for the compound. Each compound is routinely tested at concentration of 20 μM followed by a 1/5 serial dilution, 10 points in a final concentration of 1% DMSO. When potency of compound series increases, more dilutions are prepared and/or the top concentration are lowered (e.g. 5 μM, 1 μM). […]

T1 sequence (P23458 866-1154): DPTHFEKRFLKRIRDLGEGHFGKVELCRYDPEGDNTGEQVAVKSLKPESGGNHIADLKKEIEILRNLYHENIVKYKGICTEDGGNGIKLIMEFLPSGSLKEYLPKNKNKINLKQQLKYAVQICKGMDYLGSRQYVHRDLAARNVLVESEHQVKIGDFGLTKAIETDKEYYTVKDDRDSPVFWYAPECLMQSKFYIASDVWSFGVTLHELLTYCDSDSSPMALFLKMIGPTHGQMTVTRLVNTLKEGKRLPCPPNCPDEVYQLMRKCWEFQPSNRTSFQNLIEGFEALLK

Q: `CN(c1ccc2ncn(C)c2c1)c1ccc(C#N)cc1F` [C, 3-fluoro-4-[methyl-(3-methylbenzimidazol-5-yl)amino]benzonitrile, reference compound] was tested. Which IC50 did it give?
A: > 0.5 µM

Same assay, conditions: Illustrative Compounds of the invention (Table V)

Q: Which IC50 does the source give for `CNC(=O)Nc1cc(Oc2cnc(C#N)cc2C)cc2c1ncn2C` here?
A: 0.0001 to 0.05 µM

Q: With `CCc1cc(C#N)cc(F)c1N(C)c1cc(NC(=O)[C@@H]2C[C@@H]2F)c2ncn(C)c2c1` (racemic) [Cpd 7, N-(6-((4-cyano-2-ethyl-6-fluorophenyl)(methyl)amino)-1-methyl-1H-benzo[d]imidazol-4-yl)-2-fluorocyclopropanecarboxamide (1S,2S)/(1R,2R) racemic mixture] as the compound, how does the IC50 read?
A: 0.0001 to 0.05 µM

Q: With `CCc1cc(C#N)ncc1N(C)c1cc(NC(=O)C2CC2)c2ncn(C)c2c1` [Cpd 1, N-(6-((6-cyano-4-ethylpyridin-3-yl)(methyl)amino)-1-methyl-1H-benzo[d]imidazol-4-yl)cyclopropanecarboxamide] as the compound, how does the IC50 read?
A: 0.0001 to 0.05 µM

Q: Which IC50 does the source give for `CCc1cc(C#N)cc(F)c1Nc1cc(NC(=O)C2CC2)c2ncn(C)c2c1` [Cpd 2, N-(6-(4-cyano-2-ethyl-6-fluorophenylamino)-1-methyl-1H-benzo[d]imidazol-4-yl)cyclopropanecarboxamide] here?
A: 0.0001 to 0.05 µM

Q: How did the IC50 turn out when `CCc1cc(C#N)cc(F)c1N(C)c1cc(NC(=O)C2CC2)c2ncn(C)c2c1` [Cpd 3, N-(6-((4-cyano-2-ethyl-6-fluorophenyl)(methyl)amino)-1-methyl-1H-benzo[d]imidazol-4-yl)cyclopropanecarboxamide] was run?
A: 0.0001 to 0.05 µM

Q: How did the IC50 turn out when `CCc1cc(C#N)ncc1N(C)c1cc(NC(=O)OC)c2ncn(C)c2c1` [Cpd 4, methyl 6-((6-cyano-4-ethylpyridin-3-yl)(methyl)amino)-1-methyl-1H-benzo[d]imidazol-4-ylcarbamate] was run?
A: 0.0001 to 0.05 µM

Q: For `CCc1cc(C#N)cc(F)c1N(C)c1cc(NC(=O)OC)c2ncn(C)c2c1` [Cpd 5, methyl 6-((4-cyano-2-ethyl-6-fluorophenyl)(methyl)amino)-1-methyl-1H-benzo[d]imidazol-4-ylcarbamate], which IC50 is on record?
A: 0.0001 to 0.05 µM

Q: How did the IC50 turn out when `CCc1cc(C#N)ncc1Oc1cc(NC(=O)[C@H]2C[C@H]2F)c2ncn(C)c2c1` [Cpd 6, (1R,2R)-N-[6-[(6-cyano-4-ethyl-3-pyridyl)oxy]-1-methyl-benzimidazol-4-yl]-2-fluoro-cyclopropanecarboxamide] was run?
A: 0.0001 to 0.05 µM

Q: With `CCc1cc(C#N)ncc1N(C)c1cc(NC(=O)[C@H]2C[C@H]2F)c2ncn(C)c2c1` [Cpd 8, (1R,2R)-N-(6-((6-cyano-4-ethylpyridin-3-yl)(methyl)amino)-1-methyl-1H-benzo[d]imidazol-4-yl)-2-fluorocyclopropanecarboxamide] as the compound, how does the IC50 read?
A: 0.0001 to 0.05 µM

Q: `Cc1cc(C#N)ncc1N(C)c1cc(NC(=O)[C@H]2C[C@H]2F)c2ncn(C)c2c1` [Cpd 9, (1R,2R)-N-(6-((6-cyano-4-methylpyridin-3-yl)(methyl)amino)-1-methyl-1H-benzo[d]imidazol-4-yl)-2-fluorocyclopropanecarboxamide] was tested. Which IC50 did it give?
A: 0.0001 to 0.05 µM

Q: `CCc1cc(C#N)ccc1Oc1cc(NC(=O)[C@H]2C[C@H]2F)c2ncn(C)c2c1` [Cpd 10, (1R,2R)-N-[6-(4-cyano-2-ethyl-phenoxy)-1-methyl-benzimidazol-4-yl]-2-fluoro-cyclopropanecarboxamide] was tested. Which IC50 did it give?
A: 0.0001 to 0.05 µM

Q: Which IC50 does the source give for `CN(c1cc(NC(=O)[C@H]2C[C@H]2F)c2ncn(C)c2c1)c1c(F)cc(C#N)cc1Cl` [Cpd 11, (1R,2R)-N-[6-(2-chloro-4-cyano-6-fluoro-N-methyl-anilino)-1-methyl-benzimidazol-4-yl]-2-fluoro-cyclopropanecarboxamide] here?
A: 0.0001 to 0.05 µM

Q: For `Cc1cc(F)ncc1N(C)c1cc(NC(=O)[C@H]2C[C@H]2F)c2ncn(C)c2c1` [Cpd 12, (1R,2R)-2-fluoro-N-[6-[(6-fluoro-4-methyl-3-pyridyl)-methyl-amino]-1-methyl-benzimidazol-4-yl]cyclopropanecarboxamide], which IC50 is on record?
A: 0.0001 to 0.05 µM

Q: For `CN(c1cc(NC(=O)[C@H]2C[C@H]2F)c2ncn(C)c2c1)c1ccc(F)nc1F` [Cpd 13, (1R,2R)-N-[6-[(2,6-difluoro-3-pyridyl)-methyl-amino]-1-methyl-benzimidazol-4-yl]-2-fluoro-cyclopropanecarboxamide], which IC50 is on record?
A: 0.05 to 0.1 µM

Q: How did the IC50 turn out when `CN(c1cc(NC(=O)[C@H]2C[C@H]2F)c2ncn(C)c2c1)c1ccc(C#N)nc1F` [Cpd 14, (1R,2R)-N-[6-[(6-cyano-2-fluoro-3-pyridyl)-methyl-amino]-1-methyl-benzimidazol-4-yl]-2-fluoro-cyclopropanecarboxamide] was run?
A: 0.0001 to 0.05 µM

Q: How did the IC50 turn out when `CN(c1cc(NC(=O)[C@H]2C[C@H]2F)c2ncn(C)c2c1)c1ccc(C#N)cc1F` [Cpd 15, (1R,2R)-N-[6-(4-cyano-2-fluoro-N-methyl-anilino)-1-methyl-benzimidazol-4-yl]-2-fluoro-cyclopropanecarboxamide] was run?
A: 0.0001 to 0.05 µM

Q: `Cc1cc(S(C)(=O)=O)cc(F)c1N(C)c1cc(NC(=O)[C@H]2C[C@H]2F)c2ncn(C)c2c1` [Cpd 16, (1R,2R)-2-fluoro-N-[6-(2-fluoro-N,6-dimethyl-4-methylsulfonyl-anilino)-1-methyl-benzimidazol-4-yl]cyclopropanecarboxamide] was tested. Which IC50 did it give?
A: 0.0001 to 0.05 µM

Q: With `CN(c1cc(NC(=O)[C@H]2C[C@H]2F)c2ncn(C)c2c1)c1ccc(S(C)(=O)=O)cc1F` [Cpd 17, (1R,2R)-2-fluoro-N-[6-(2-fluoro-N-methyl-4-methylsulfonyl-anilino)-1-methyl-benzimidazol-4-yl]cyclopropanecarboxamide] as the compound, how does the IC50 read?
A: 0.1 to 0.5 µM

Q: `CCc1cc(S(C)(=O)=O)ncc1N(C)c1cc(NC(=O)C2CC2)c2ncn(C)c2c1` [Cpd 18, N-[6-[(4-ethyl-6-methylsulfonyl-3-pyridyl)-methyl-amino]-1-methyl-benzimidazol-4-yl]cyclopropanecarboxamide] was tested. Which IC50 did it give?
A: 0.0001 to 0.05 µM

Q: `Cc1cc(S(C)(=O)=O)cc(F)c1N(C)c1cc(NC(=O)C2CC2)c2ncn(C)c2c1` [Cpd 19, N-[6-(2-fluoro-N,6-dimethyl-4-methylsulfonyl-anilino)-1-methyl-benzimidazol-4-yl]cyclopropanecarboxamide] was tested. Which IC50 did it give?
A: 0.0001 to 0.05 µM

Q: With `Cc1cc(C#N)ncc1Oc1cc(NC(=O)[C@H]2C[C@H]2F)c2ncn(C)c2c1` [Cpd 20, (1R,2R)-N-[6-[(6-cyano-4-methyl-3-pyridyl)oxy]-1-methyl-benzimidazol-4-yl]-2-fluoro-cyclopropanecarboxamide] as the compound, how does the IC50 read?
A: 0.0001 to 0.05 µM

Q: `Cc1cc(C#N)nc(F)c1N(C)c1cc(NC(=O)[C@H]2C[C@H]2F)c2ncn(C)c2c1` [Cpd 21, (1R,2R)-N-[6-[(6-cyano-2-fluoro-4-methyl-3-pyridyl)-methyl-amino]-1-methyl-benzimidazol-4-yl]-2-fluoro-cyclopropanecarboxamide] was tested. Which IC50 did it give?
A: 0.0001 to 0.05 µM

Q: Which IC50 does the source give for `Cc1cnc(C#N)c(F)c1N(C)c1cc(NC(=O)[C@H]2C[C@H]2F)c2ncn(C)c2c1` [Cpd 22, (1R,2R)-N-[6-[(2-cyano-3-fluoro-5-methyl-4-pyridyl)-methyl-amino]-1-methyl-benzimidazol-4-yl]-2-fluoro-cyclopropanecarboxamide] here?
A: 0.0001 to 0.05 µM

Q: How did the IC50 turn out when `Cc1cc(C#N)ncc1Oc1cc(NC(=O)C2CC2)c2ncn(C)c2c1` [Cpd 23, N-[6-[(6-cyano-4-methyl-3-pyridyl)oxy]-1-methyl-benzimidazol-4-yl]cyclopropanecarboxamide] was run?
A: 0.0001 to 0.05 µM

Q: With `CCc1cc(C(N)=O)ncc1N(C)c1cc(NC(=O)C2CC2)c2ncn(C)c2c1` [Cpd 24, 5-((4-(cyclopropanecarboxamido)-1-methyl-1H-benzo[d]imidazol-6-yl)(methyl)amino)-4-ethylpicolinamide] as the compound, how does the IC50 read?
A: 0.0001 to 0.05 µM
